Experimental data from US8629143B2, “Potassium channel modulators” (AbbVie Inc., priority 2009, dated 2014).

Biological target: T1, KCNQ 2/3 channels (HEK293 cells stably expressing human KCNQ2 and KCNQ3 subunits) (Homo sapiens, UniProt O43525+O43526)
T1 construct: expressed in transfected cells; host or cells: HEK293
Assay: KCNQ2/3 channel activation, thallium flux FLIPR assay with BTC-AM dye
Format: cell-based
Conditions: for Emax: HEK293, maximum response relative to the response produced by 10 μM retigabine (set at 100%), read-out: Max. %; for EC50: HEK293 cells expressing human KCNQ2 and KCNQ3, thallium flux, FLIPR
Outline: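 HEK293 cells stably expressing human KCNQ2/KCNQ3 were loaded with BTC-AM (3 μg/mL, 2 h, RT) and preincubated with compound for 4 min in pH 7.3 gluconate buffer containing 0.1 mM ouabain. Flux was triggered by 6 mM TlNO3/10 mM K2SO4 and read for 3 min; EC50 came from summed responses over basal, with maximum relative to 10 μM retigabine (100%).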

| Compound | Emax [%] | EC50 [nM] |
| --- | --- | --- |
| O=C(CC1(c2ccccc2)CCCC1)Nn1nc(-c2ccc(Cl)cc2)c2ccccc2c1=O [Example 119, N-[4-(4-chlorophenyl)-1-oxophthalazin-2(1H)-yl]-2-(1-phenylcyclopentyl)acetamide] | 12 | > 10000 |
| O=C(Cc1ccc2ccccc2c1)Nn1nc(-c2ccc(Cl)cc2)c2ccccc2c1=O [Example 121, N-[4-(4-chlorophenyl)-1-oxophthalazin-2(1H)-yl]-2-(2-naphthyl)acetamide] | 201 | 1000 to 10000 |
| O=C(CCC(F)(F)F)Nn1nc(-c2ccc(Cl)cc2)c2ccccc2c1=O [Example 123, N-[4-(4-chlorophenyl)-1-oxophthalazin-2(1H)-yl]-4,4,4-trifluorobutanamide] | 48 | 500 to 1000 |
| O=C(CC(F)(F)F)Nn1nc(-c2ccc(Cl)cc2)c2ccccc2c1=O [Example 124, N-[4-(4-chlorophenyl)-1-oxophthalazin-2(1H)-yl]-3,3,3-trifluoropropanamide] | 33 | 1000 to 10000 |
| O=C(CC12CC3CC(CC(C3)C1)C2)Nn1nc(-c2cccc(Cl)c2)c2ccccc2c1=O [Example 126, 2-(adamantan-1-yl)-N-[4-(3-chlorophenyl)-1-oxophthalazin-2(1H)-yl]acetamide] | 153 | 100 to 500 |
| O=C(Cc1ccc(Cl)cc1)Nn1nc(-c2cccc(Cl)c2)c2ccccc2c1=O [Example 127, 2-(4-chlorophenyl)-N-[4-(3-chlorophenyl)-1-oxophthalazin-2(1H)-yl]acetamide] | 101 | 100 to 500 |
| O=C(Cc1cc(F)cc(F)c1)Nn1nc(-c2cccc(Cl)c2)c2ccccc2c1=O [Example 128, N-[4-(3-chlorophenyl)-1-oxophthalazin-2(1H)-yl]-2-(3,5-difluorophenyl)acetamide] | 140 | 100 to 500 |
| O=C(C[C@@H]1C[C@@H]2CC[C@H]1C2)Nn1nc(-c2ccc(F)cc2)c2ccccc2c1=O [Example 129, 2-[(1S,2S,4R)-bicyclo[2.2.1]hept-2-yl]-N-[4-(4-fluorophenyl)-1-oxophthalazin-2(1H)-yl]acetamide] | 143 | < 100 |
| O=C(C[C@@H]1C[C@@H]2C=C[C@H]1C2)Nn1nc(-c2ccc(F)cc2)c2ccccc2c1=O [Example 130, 2-[(1S,2S,4S)-bicyclo[2.2.1]hept-5-en-2-yl]-N-[4-(4-fluorophenyl)-1-oxophthalazin-2(1H)-yl]acetamide] | 156 | < 100 |
| O=C(Cc1ccc(Cl)cc1)Nn1nc(-c2ccc(F)cc2)c2ccccc2c1=O [Example 132, 2-(4-chlorophenyl)-N-[4-(4-fluorophenyl)-1-oxophthalazin-2(1H)-yl]acetamide] | 123 | 100 to 500 |
| O=C(Cc1cc(F)cc(F)c1)Nn1nc(-c2ccc(F)cc2)c2ccccc2c1=O [Example 133, 2-(3,5-difluorophenyl)-N-[4-(4-fluorophenyl)-1-oxophthalazin-2(1H)-yl]acetamide] | 144 | 100 to 500 |
| Cc1ccc(-c2nn(NC(=O)Cc3ccc(Cl)cc3)c(=O)c3ccccc23)cc1 [Example 135, 2-(4-chlorophenyl)-N-[4-(4-methylphenyl)-1-oxophthalazin-2(1H)-yl]acetamide] | 95 | 100 to 500 |
| Cc1ccc(-c2nn(NC(=O)Cc3cc(F)cc(F)c3)c(=O)c3ccccc23)cc1 [Example 136, 2-(3,5-difluorophenyl)-N-[4-(4-methylphenyl)-1-oxophthalazin-2(1H)-yl]acetamide] | 130 | < 100 |
| Cc1ccc(-c2nn(NC(=O)C[C@@H]3CC[C@H]4C[C@@H]3C4(C)C)c(=O)c3ccccc23)cc1 [Example 137, 2-[(1S,2S,5S)-6,6-dimethylbicyclo[3.1.1]hept-2-yl]-N-[4-(4-methylphenyl)-1-oxophthalazin-2(1H)-yl]acetamide] | 95 | 100 to 500 |
| Cc1ccc(-c2nn(NC(=O)CC34CC5CC(CC(C5)C3)C4)c(=O)c3ccccc23)cc1 [Example 138, 2-(adamantan-1-yl)-N-[4-(4-methylphenyl)-1-oxophthalazin-2(1H)-yl]acetamide] | 129 | < 100 |
| O=C(CC1(C(F)(F)F)CCCC1)Nn1nc(Cc2ccccc2)c2ccccc2c1=O [Example 139, N-(4-benzyl-1-oxophthalazin-2(1H)-yl)-2-[1-(trifluoromethyl)cyclopentyl]acetamide] | 20 | > 10000 |
| CC(C)(CC(=O)Nn1nc(Cc2ccccc2)c2ccccc2c1=O)c1ccccc1 [Example 140, N-(4-benzyl-1-oxophthalazin-2(1H)-yl)-3-methyl-3-phenylbutanamide] | 126 | < 100 |
| O=C(Cc1ccc(Cl)cc1)Nn1nc(Cc2ccccc2)c2ccccc2c1=O [Example 142, N-(4-benzyl-1-oxophthalazin-2(1H)-yl)-2-(4-chlorophenyl)acetamide] | 109 | < 100 |

| Compound | Emax [%] | EC50 [nM] |
| --- | --- | --- |
| O=C(Cc1cc(F)cc(F)c1)Nn1nc(Cc2ccccc2)c2ccccc2c1=O [Example 143, N-(4-benzyl-1-oxophthalazin-2(1H)-yl)-2-(3,5-difluorophenyl)acetamide] | 128 | < 100 |
| O=C(Cc1ccc(Cl)cc1)Nn1nc(Cc2ccc(Cl)cc2)c2ccccc2c1=O [Example 145, N-[4-(4-chlorobenzyl)-1-oxophthalazin-2(1H)-yl]-2-(4-chlorophenyl)acetamide] | 101 | 100 to 500 |
| O=C(Cc1cc(F)cc(F)c1)Nn1nc(Cc2ccc(Cl)cc2)c2ccccc2c1=O [Example 146, N-[4-(4-chlorobenzyl)-1-oxophthalazin-2(1H)-yl]-2-(3,5-difluorophenyl)acetamide] | 83 | 100 to 500 |
| O=C(C[C@@H]1C[C@@H]2CC[C@H]1C2)Nn1nc(-c2ccc(C(F)(F)F)cc2)c2ccccc2c1=O [Example 147, 2-[(1S,2S,4R)-bicyclo[2.2.1]hept-2-yl]-N-{1-oxo-4-[4-(trifluoromethyl)phenyl]phthalazin-2(1H)-yl}acetamide] | 154 | 100 to 500 |
| CC(C)(CC(=O)Nn1nc(-c2ccc(C(F)(F)F)cc2)c2ccccc2c1=O)c1ccccc1 [Example 148, 3-methyl-N-{1-oxo-4-[4-(trifluoromethyl)phenyl]phthalazin-2(1H)-yl}-3-phenylbutanamide] | 114 | 100 to 500 |
| O=C(CC12CC3CC(CC(C3)C1)C2)Nn1nc(-c2ccc(C(F)(F)F)cc2)c2ccccc2c1=O [Example 149, 2-(adamantan-1-yl)-N-{1-oxo-4-[4-(trifluoromethyl)phenyl]phthalazin-2(1H)-yl}acetamide] | 133 | < 100 |
| COc1ccc(-c2nn(NC(=O)CC3CCC(C)CC3)c(=O)c3ccccc23)cc1 (stereo not shown) [Example 152, N-[4-(4-methoxyphenyl)-1-oxophthalazin-2(1H)-yl]-2-(4-methylcyclohexyl)acetamide] | 114 | 100 to 500 |
| COc1ccc(-c2nn(NC(=O)Cc3cc(F)cc(F)c3)c(=O)c3ccccc23)cc1 [Example 153, 2-(3,5-difluorophenyl)-N-[4-(4-methoxyphenyl)-1-oxophthalazin-2(1H)-yl]acetamide] | 143 | 500 to 1000 |
| COc1ccc(-c2nn(NC(=O)CC34CC5CC(CC(C5)C3)C4)c(=O)c3ccccc23)cc1 [Example 154, 2-(adamantan-1-yl)-N-[4-(4-methoxyphenyl)-1-oxophthalazin-2(1H)-yl]acetamide] | 136 | < 100 |
| Cc1ccc(C)c(-c2nn(NC(=O)CC34CC5CC(CC(C5)C3)C4)c(=O)c3ccccc23)c1 [Example 156, 2-(adamantan-1-yl)-N-[4-(2,5-dimethylphenyl)-1-oxophthalazin-2(1H)-yl]acetamide] | 177 | 100 to 500 |
| Cc1ccc(C)c(-c2nn(NC(=O)Cc3ccc(Cl)cc3)c(=O)c3ccccc23)c1 [Example 157, 2-(4-chlorophenyl)-N-[4-(2,5-dimethylphenyl)-1-oxophthalazin-2(1H)-yl]acetamide] | 155 | 100 to 500 |
| Cc1ccc(C)c(-c2nn(NC(=O)Cc3cc(F)cc(F)c3)c(=O)c3ccccc23)c1 [Example 158, 2-(3,5-difluorophenyl)-N-[4-(2,5-dimethylphenyl)-1-oxophthalazin-2(1H)-yl]acetamide] | 167 | 100 to 500 |
| Cc1ccc(-c2nn(NC(=O)C[C@@H]3C[C@@H]4C=C[C@H]3C4)c(=O)c3ccccc23)c(C)c1 [Example 159, 2-[(1S,2S,4S)-bicyclo[2.2.1]hept-5-en-2-yl]-N-[4-(2,4-dimethylphenyl)-1-oxophthalazin-2(1H)-yl]acetamide] | 156 | 100 to 500 |
| Cc1ccc(-c2nn(NC(=O)Cc3ccc(Cl)cc3)c(=O)c3ccccc23)c(C)c1 [Example 161, 2-(4-chlorophenyl)-N-[4-(2,4-dimethylphenyl)-1-oxophthalazin-2(1H)-yl]acetamide] | 145 | 100 to 500 |
| Cc1ccc(-c2nn(NC(=O)Cc3cc(F)cc(F)c3)c(=O)c3ccccc23)c(C)c1 [Example 162, 2-(3,5-difluorophenyl)-N-[4-(2,4-dimethylphenyl)-1-oxophthalazin-2(1H)-yl]acetamide] | 164 | 100 to 500 |
| Cc1ccc(-c2nn(NC(=O)CC34CC5CC(CC(C5)C3)C4)c(=O)c3ccccc23)cc1C [Example 164, 2-(adamantan-1-yl)-N-[4-(3,4-dimethylphenyl)-1-oxophthalazin-2(1H)-yl]acetamide] | 155 | < 100 |
| Cc1ccc(-c2nn(NC(=O)Cc3ccc(Cl)cc3)c(=O)c3ccccc23)cc1C [Example 165, 2-(4-chlorophenyl)-N-[4-(3,4-dimethylphenyl)-1-oxophthalazin-2(1H)-yl]acetamide] | 112 | 100 to 500 |
